Assay results taken from BindingDB's records for doi:10.1021/cc990074a (Ariad Pharmaceuticals, 2000).

Biological target: Proto-oncogene tyrosine-protein kinase Src (Homo sapiens)
Assay: Compounds were tested for binding to Src SH2 using a fluorescence polarization binding assay according to methods previously described. IC50 values were assigned to individual compounds according to their competitive binding affinity versus a high-affinity peptide probe, fluorescein-pTyr-pTyr-pTyr-Ile-Glu-NH2.

IC50 [µM]	SMILES
> 100	O=C(NCc1ccc(OCC2CCCCC2)cc1)c1ccc(OP(=O)(O)O)cc1 [Src SH2 inhibitor, 4]
37	COc1ccc(C(C)NC(=O)C(Cc2ccc(OP(=O)(O)O)cc2)NC(C)=O)cc1C(N)=O (stereo not drawn) [Src SH2 inhibitor, 1b]

SMILES	IC50 [µM]
NC(=O)c1cc(CNC(=O)c2ccc(OP(=O)(O)O)cc2)ccc1OCC1CCCCC1 [Src SH2 inhibitor, 3]	6.5
